The subject of series [1] is tomato leaf transpiration. Put plainly: Tomato leaf transpiration rate after foliar spray (LI-1600 porometer). Type of series: in vivo, Tomato (variety: Rutgers). The settings on record: for Transpiration rate (% of control), 3-Day Average: average of days 1-3; for Transpiration rate (% of control), Days after treatment 1: day 1; for Transpiration rate (% of control), Days after treatment 2: day 2; for Transpiration rate (% of control), Days after treatment 3: day 3. The method, then:
Preparation of plant specimens for use in the treatment studies of the EXAMPLES that follow was carried out as follows. Tomato (variety: Rutgers) seeds were sown in an 18-cell flat filled with Promix PGX (available from Premier Horticulture Inc., Quakertown Pa.) and grown for 3 weeks to allow for germination and initial growth. Plants were then transplanted into pots (18 cm in diameter and 18 cm in height), filled with Promix BX (available from Premier Horticulture Inc., Quakertown Pa.), and grown for one or two more weeks before treatment, depending on temperature and available light. Plants received daily irrigation and weekly fertilizer (1 g/L all purpose fertilizer 20-20-20, available from The Scotts Company, Marysville, Ohio).
All treatment solutions were made up with distilled water. The (S)-(+)-abscisic acid (95% active ingredient) is available from Lomon BioTechnology Co., Ltd. (Shichuan, China). Twenty L of a 250 ppm solution of (S)-(+)-abscisic acid was prepared and stored in the dark at 20-25° C. This same 250-ppm (S)-(+)-abscisic acid solution was used as a control for all studies to eliminate the possibility of applying an incorrect concentration.
All experiments were conducted using a randomized complete block experimental design. Solutions of (S)-(+)-abscisic acid and blank treatments (plain water) were applied by spray to the aerial parts of the tomato plants at the rate of 20 mL per 6 plants. Plants were then placed in a transparent chamber with humidity controlled within the range of 40 to 60% relative humidity. Leaf transpiration rates were measured at 1, 2 and 3 days after treatment. Measurements were conducted using a LI-1600 Steady State Porometer (LI-Cor, Lincoln, Nebr.). Each day the transpiration rate of the plants of each treatment group was normalized to a percentage of the transpiration rate of untreated plants (plants sprayed with water only) in order to control for day-to-day variability in plant status caused by changes of environmental conditions such as light intensity and temperature. Data of each plant was also averaged over a 3-day period to balance the short term and long term effect of (S)-(+)-abscisic acid on tomato leaf transpiration as well as to reduce experimental variability.

Series [2] relates to California Blackeye Pea (cowpea). The series is described as follows: Phytotoxicity and growth after foliar application. Type of series: in vivo. The settings on record: for % Leaf Area Damaged 3 days after treatment: monofoliate leaves. The method, then: Phytotoxicity is defined as damage to a plant caused by treatment with an externally applied chemical substance. Phytotoxicity caused by application of an agricultural chemical is considered highly undesirable (except in the case of herbicides). To test the relative safety of the compositions of the present invention, comprising an ammonium salt of (S)-(+)-abscisic acid, as compared to compositions of the prior art, comprising an ammonium salt of (R,S)-(±)-abscisic acid, plants were treated with solutions containing two different concentrations of the (S)-(+)-abscisic acid or with solutions containing (R,S)-(±)-abscisic acid at concentrations in which either the total concentration of (R,S)-(±)-abscisic acid was equal to the higher concentration of (S)-(+)-abscisic acid or in which the concentration of (S)-(+)-abscisic acid contained in the (R,S)-(±)-abscisic acid was equal to the higher treatment concentration of the pure (S)-(+)-abscisic acid. California Blackeye Pea (cowpea) seed was planted into 18 cell flats filled with Promix PGX in a greenhouse. When the plants had grown to a point where the monofoliate leaves were fully expanded and the first trifoliate leaves were emerging (18 days after planting) the plants were sprayed with 1.5 ml of treatment solution. After treatment the plants were held in the greenhouse and evaluated for damage to the monofoliate leaves and also for growth of the trifoliate leaves. The percentage of the monofoliate leaf area that was damaged was estimated three days after treatment, and monofoliate leaf abscission and trifoliate leaf development were determined on the fifth day after treatment.

The conditions of series [3]: literature reports; cited from earlier work.
For series [4] the following is noted: cited from earlier work; for highest concentration achievable in water: pure water, room / ordinary ambient temperature.

SMILES strings stand for the structures. Like-named read-outs stand apart in the source and are kept apart here. Bounds are passed on as bounds.

Regarding `CC1=CC(=O)CC(C)(C)C1(O)/C=C/C(C)=C\C(=O)O.N` (racemic) [(R,S)-(±)-abscisic acid ammonium salt], in series [1] (Table 8, 250 ppm spray), the “Transpiration rate (% of control), 3-Day Average” value was 90.95 % of control; the “Transpiration rate (% of control), Days after treatment 1” value is listed as 90.26 % of control; the “Transpiration rate (% of control), Days after treatment 2” value is on record as 87.73 % of control; the “Transpiration rate (% of control), Days after treatment 3” value was 94.86 % of control. Further, in series [1] (Table 8, 500 ppm spray), the “Transpiration rate (% of control), 3-Day Average” value is reported as 81.03 % of control; the “Transpiration rate (% of control), Days after treatment 1” value is given as 77.53 % of control; the “Transpiration rate (% of control), Days after treatment 2” value is reported as 76.20 % of control; the “Transpiration rate (% of control), Days after treatment 3” value is 89.36 % of control. Moreover, in series [2] (6250 ppm foliar spray), the “Average Number of Abscised Monofoliate Leaves 5 days after treatment” value is recorded as 1.7, the “Average Number of New Trifoliate Leaves 5 days after treatment” value was 0.0 and the “% Leaf Area Damaged 3 days after treatment” value was 97%. In addition, in series [2] (12500 ppm foliar spray), the “Average Number of Abscised Monofoliate Leaves 5 days after treatment” value came out at 2.0, the “Average Number of New Trifoliate Leaves 5 days after treatment” value is 0.0 and the “% Leaf Area Damaged 3 days after treatment” value came out at 100%. Besides, the “relative phytotoxicity, (S)-(+)- vs (R,S)-(±)-abscisic acid salt” value in series [2] (equal total dose or equal (S)-(+)-enantiomer dose) is on record as “more phytotoxicity”.

Consider `CC1=CC(=O)CC(C)(C)[C@]1(O)/C=C/C(C)=C\C(=O)O` [(R)-(−)-abscisic acid], for which, in series [3], the biological activity result is “biologically inactive”.

Consider `CC(C=C[C@@]1(O)C(C)=CC(=O)CC1(C)C)=CC(=O)O` [(S)-(+)-2-trans-,4-trans-isomer], for which, in series [3], the biological activity result was “biologically inactive”.

As to `CC1=CC(=O)CC(C)(C)[C@@]1(O)/C=C/C(C)=C\C(=O)O` [(S)-(+)-abscisic acid, 2-cis-, 4-trans-(S)-(+)-abscisic acid], in series [4] (hard water, compared with pure water), the “solubility in hard water” value is “even less”. Further, in series [4] (propylene glycol), the “solubility in propylene glycol” value is “poorly soluble”. For the same molecule, the entries for the “highest concentration achievable in water” value in series [4] and in series [4] (listed as abscisic acid) were ≤ 3000 ppm and “about 3000 ppm”, respectively. For the same molecule, the “Transpiration rate (% of control), 3-Day Average” value is recorded as 87.02 % of control in series [1] (Table 1, 250 ppm spray); 87.02 % of control in series [1] (Table 2, 250 ppm spray); 80.78 % of control in series [1] (Table 3, 250 ppm spray); 83.21 % of control in series [1] (Table 4, 250 ppm spray); 69.00 % of control in series [1] (Table 5, 250 ppm spray); 78.21 % of control in series [1] (Table 7, 250 ppm spray). Further, the “Transpiration rate (% of control), 3-Day Average” value in series [1] (Table 8, 250 ppm spray) is on record as 78.21 % of control. In addition, the “Transpiration rate (% of control), Days after treatment 1” value in series [1] (Table 1, 250 ppm spray) is recorded as 75.59 % of control; in series [1] (Table 2, 250 ppm spray), 75.59 % of control; in series [1] (Table 3, 250 ppm spray), 72.66 % of control; in series [1] (Table 4, 250 ppm spray) it was 75.30 % of control; in series [1] (Table 5, 250 ppm spray), 59.35 % of control; in series [1] (Table 7, 250 ppm spray), 71.16 % of control. Besides, the “Transpiration rate (% of control), Days after treatment 1” value in series [1] (Table 8, 250 ppm spray) is listed as 71.16 % of control. The “Transpiration rate (% of control), Days after treatment 2” value is 89.83 % of control in series [1] (Table 1, 250 ppm spray); 89.83 % of control in series [1] (Table 2, 250 ppm spray); 76.18 % of control in series [1] (Table 3, 250 ppm spray); 83.65 % of control in series [1] (Table 4, 250 ppm spray); 71.02 % of control in series [1] (Table 5, 250 ppm spray); 75.23 % of control in series [1] (Table 7, 250 ppm spray). In series [1] (Table 8, 250 ppm spray), the “Transpiration rate (% of control), Days after treatment 2” value is 75.23 % of control. For the same molecule, the “Transpiration rate (% of control), Days after treatment 3” value in series [1] (Table 1, 250 ppm spray) is on record as 95.63 % of control; in series [1] (Table 2, 250 ppm spray), 95.63 % of control; in series [1] (Table 3, 250 ppm spray), 93.50 % of control; in series [1] (Table 4, 250 ppm spray), 90.68 % of control; in series [1] (Table 5, 250 ppm spray) it was 76.62 % of control; in series [1] (Table 7, 250 ppm spray), 88.25 % of control. Further, in series [1] (Table 8, 250 ppm spray), the “Transpiration rate (% of control), Days after treatment 3” value is 88.25 % of control.
